According to patent publication US20260209214A1, “LSD1 MODULATORS” (RECURSION PHARMACEUTICALS, INC., priority 2022, published 2026):

Biological target: Recombinant human LSD1 (Homo sapiens, UniProt O60341)
Assay: LSD1 inhibition assay (HTRF LSD1 Histone H3K4 mono-demethylation assay, me1->me0)
Format: biochemical
Conditions: 20 nM recombinant human LSD1, 95 nM H3K4(me1) biotinylated peptide, 15 min preincubation, 60 min at 25° C., read-out: LSD1 inhibition IC50 (nM range)
Summary of the method: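 Recombinant human LSD1 (20 nM) pre-incubated 15 min with 10 semi-log compound doses, then 95 nM biotinylated H3K4me1 peptide for 60 min at 25 °C in pH 8.5 Tris/NaCl buffer with 10 μM FAD, 1 mM DTT. HTRF me0-antibody read after 90 min; IC50 from 4-parameter fit.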

N#Cc1ccc(-c2cccc(CC3CNCCO3)c2N2CC(F)C2)cc1F (centres unmarked) [Example 40, 3-fluoro-2′-(3-fluoroazetidin-1-yl)-3′-[(morpholin-2-yl)methyl]-[1,1′-biphenyl]-4-carbonitrile]
IC50: 100 to 1000 nM

CN[C@]12CC[C@H](C1)N(Cc1cccc(-c3ccc(C#N)c(F)c3)c1C1CC1)C2 [Example 195, 2'-cyclopropyl-3-fluoro-3'-{[(1R,4R)-4-(methylamino)-2-azabicyclo[2.2.1]heptan-2-yl]methyl}-[1,1'-biphenyl]-4-carbonitrile]
IC50: 10 to 25 nM

CC1(C)CNCC(Cc2ccc(N3CCC3)c(-c3ccc(C#N)c(F)c3)c2)O1 (centres unmarked) [Example 139, 2'-(azetidin-1-yl)-5'-[(6,6-dimethylmorpholin-2-yl)methyl]-3-fluoro-[1,1'-biphenyl]-4-carbonitrile]
IC50: 100 to 1000 nM

N#Cc1ccc(-c2ccc(F)c(CN3[C@@H]4CC[C@H]3[C@@H](N)C4)c2-c2ccns2)cc1F (racemic) [Example 207, 3'-{[(1S,2S,4R)-2-amino-7-azabicyclo[2.2.1]heptan-7-yl]methyl}-3,4'-difluoro-2'-(1,2-thiazol-5-yl)-[1,1'-biphenyl]-4-carbonitrile]
IC50: < 10 nM

N#Cc1ccc(-c2cccc(C[C@@H]3CNCCO3)c2-c2ocnc2F)cc1 [Example 3, 2′-(4-fluoro-1,3-oxazol-5-yl)-3′-{[(2R)-orpholin-2-yl]methyl}-[1,1′-biphenyl]-4-carbonitrile]
IC50: 10 to 25 nM

COC1CN(c2ccc(CC3CNCCO3)cc2-c2ccc(C#N)c(F)c2)C1 (centres unmarked) [Example 140, 3-fluoro-2′-(3-methoxyazetidin-1-yl)-5′-[(morpholin-2-yl)methyl]-[1,1′-biphenyl]-4-carbonitrile]
IC50: > 1000 nM

COc1ccc(C2CN(c3ccc(CC4CNCCO4)cc3-c3ccc(C#N)c(F)c3)C2)cn1 (centres unmarked) [Example 86, 3-fluoro-2′-[3-(6-methoxypyridin-3-yl)azetidin-1-yl]-5′-[(morpholin-2-yl)methyl]-[1,1′-biphenyl]-4-carbonitrile]
IC50: 100 to 1000 nM

Cc1cc(CNCC2(C)CCN(C)C2)c(Cl)c(-c2ccc(C#N)c(F)c2)c1 (centres unmarked) [Example 298, 2'-chloro-3'-({[(1,3-dimethylpyrrolidin-3-yl)methyl]amino}methyl)-3-fluoro-5'-methyl-[1,1'-biphenyl]-4-carbonitrile]
IC50: 100 to 1000 nM

N#Cc1ccc(-c2cccc(C[C@H]3CNCCO3)c2-c2ccno2)cc1 (single isomer, unassigned) [Example 9]
IC50: 10 to 25 nM

N#Cc1ccc(-c2cc(CN3[C@@H]4CC[C@H]3[C@@H](N)C4)ccc2OC(F)F)cc1F (racemic) [Example 310, 5'-{[(1S,2S,4R)-2-amino-7-azabicyclo[2.2.1]heptan-7-yl]methyl}-2'-(difluoromethoxy)-3-fluoro-[1,1'-biphenyl]-4-carbonitrile]
IC50: 10 to 25 nM

N#Cc1ccc(-c2cc(CN3[C@@H]4CC[C@H]3[C@@H](N)C4)ccc2-c2ccns2)cc1F (racemic) [Example 314, 5'-{[(1S,2S,4R)-2-amino-7-azabicyclo[2.2.1]heptan-7-yl]methyl}-3-fluoro-2'-(1,2-thiazol-5-yl)-[1,1'-biphenyl]-4-carbonitrile]
IC50: 10 to 25 nM

N#Cc1ccc(-c2cccc(CN3CCNCC(F)(F)C3)c2Cl)cc1F [Example 338, 2'-chloro-3'-[(6,6-difluoro-1,4-diazepan-1-yl)methyl]-3-fluoro-[1,1'-biphenyl]-4-carbonitrile]
IC50: > 1000 nM

N#Cc1ccc(-c2cccc(CN3CC4CNCC3C4)c2Cl)cc1F (centres unmarked) [Example 238, 2'-chloro-3'-({3,6-diazabicyclo[3.2.1]octan-6-yl}methyl)-3-fluoro-[1,1'-biphenyl]-4-carbonitrile]
IC50: 100 to 1000 nM

C[C@@]1(O)C[C@H]2CN(c3ccc(CC4CNCCO4)cc3-c3ccc(C#N)c(F)c3)C[C@H]2C1 (mixture of isomers) [Example 114, 2′-[(3aR,5S,6aS)-5-hydroxy-5-methyl-octahydrocyclopenta[c]pyrrol-2-yl]-3-fluoro-5′-[(morpholin-2-yl)methyl]-[1,1′-biphenyl]-4-carbonitrile]
IC50: 100 to 1000 nM

Cc1cc(CN2C[C@@H]3[C@@H](N)[C@@H]3C2)c(Cl)c(-c2ccc(C#N)c(F)c2)c1 [Example 347, 3'-{[(1R,5S,6R)-6-amino-3-azabicyclo[3.1.0]hexan-3-yl]methyl}-2'-chloro-3-fluoro-5'-methyl-[1,1'-biphenyl]-4-carbonitrile]
IC50: 100 to 1000 nM

N#Cc1ccc(-c2cccc(C[C@@H]3CNCCO3)c2-c2ccns2)cc1 (single isomer, unassigned) [Example 11]
IC50: 10 to 25 nM

CC(C)C1(O)CCN(c2ccc(CN3C[C@]4(N)CC[C@H]3C4)cc2-c2ccc(C#N)c(F)c2)CC1 [Example 262, 5'-{[(1S,4S)-4-amino-2-azabicyclo[2.2.1]heptan-2-yl]methyl}-3-fluoro-2'-[4-hydroxy-4-(propan-2-yl)piperidin-1-yl]-[1,1'-biphenyl]-4-carbonitrile]
IC50: 10 to 25 nM

N#Cc1ccc(-c2cccc(CN3C[C@]4(N)CC[C@H]3C4)c2-c2ocnc2F)cc1F [Example 174, 3'-{[(1S,4S)-4-amino-2-azabicyclo[2.2.1]heptan-2-yl]methyl}-3-fluoro-2'-(4-fluoro-1,3-oxazol-5-yl)-[1,1'-biphenyl]-4-carbonitrile]
IC50: 10 to 25 nM

N#Cc1ccc(-c2cccc(CN3[C@@H]4CC[C@H]3[C@@H](N)C4)c2-c2ccsc2)cc1F (racemic) [Example 244, 3'-{[(1S,2S,4R)-2-amino-7-azabicyclo[2.2.1]heptan-7-yl]methyl}-3-fluoro-2'-(thiophen-3-yl)-[1,1'-biphenyl]-4-carbonitrile]
IC50: 25 to 100 nM

N#Cc1ccc(-c2cc(CN3[C@@H]4CC[C@H]3[C@@H](N)C4)ccc2N2CCC3(CCCO3)CC2)cc1F (racemic) [Example 224, 5'-{[(1S,2S,4R)-2-amino-7-azabicyclo[2.2.1]heptan-7-yl]methyl}-3-fluoro-2'-{1-oxa-8-azaspiro [4.5]decan-8-yl}-[1,1'-biphenyl]-4-carbonitrile]
IC50: 10 to 25 nM

N#Cc1ccc(-c2cccc(CN3[C@@H]4CC[C@H]3[C@@H](N)C4)c2-c2ccns2)cc1 (single isomer, unassigned) [Example 204]
IC50: 10 to 25 nM

Cn1nccc1-c1c(CC2CNCCO2)cccc1-c1ccc(C#N)c(F)c1 (centres unmarked) [Example 156, 3-fluoro-2′-(1-methyl-1H-pyrazol-5-yl)-3′-[(morpholin-2-yl)methyl]-[1,1′-biphenyl]-4-carbonitrile]
IC50: 25 to 100 nM

N#Cc1ccc(-c2cc(C3CC3)cc(CC3CNCCO3)c2-c2cncs2)cc1F (centres unmarked) [Example 57, 5′-cyclopropyl-3-fluoro-3′-[(morpholin-2-yl)methyl]-2′-(1,3-thiazol-5-yl)-[1,1′-biphenyl]-4-carbonitrile]
IC50: 10 to 25 nM

N#Cc1ccc(-c2cccc(N3CCC(N)CC3)c2-c2ccns2)cc1F [Example 110, 3'-(4-aminopiperidin-1-yl)-3-fluoro-2'-(1,2-thiazol-5-yl)-[1,1'-biphenyl]-4-carbonitrile]
IC50: 10 to 25 nM

N#Cc1ccc(-c2cc(CC3CNCCO3)ccc2C2CCOCC2)cc1F (centres unmarked) [Example 158, 3-fluoro-5′-[(morpholin-2-yl)methyl]-2′-(oxan-4-yl)-[1,1′-biphenyl]-4-carbonitrile]
IC50: > 1000 nM

Cn1cc2cc(-c3ccc(CC4CNCCO4)cc3-c3ccc(C#N)c(F)c3)ccc2n1 (centres unmarked) [Compound 58]
IC50: 100 to 1000 nM

COc1cnc(-c2ccc(CC3CNCCO3)cc2-c2ccc(C#N)c(F)c2)cn1 (centres unmarked) [Example 132, 3-fluoro-2′-(5-methoxypyrazin-2-yl)-5′-[(morpholin-2-yl)methyl]-[1,1′-biphenyl]-4-carbonitrile]
IC50: > 1000 nM

CN1CCOC(Cc2ccc(N3CCC3)c(-c3ccc(C#N)c(F)c3)c2)C1 (centres unmarked) [Example 146, 2′-(azetidin-1-yl)-3-fluoro-5′-[(4-methylmorpholin-2-yl)methyl]-[1,1′-biphenyl]-4-carbonitrile]
IC50: > 1000 nM

Cc1cc(CN2[C@@H]3CC[C@H]2[C@@H](N)C3)c(C2CC2)c(-c2ccc(C#N)c(F)c2)c1 (racemic) [Example 304, 3'-{[(1S,2S,4R)-2-amino-7-azabicyclo[2.2.1]heptan-7-yl]methyl}-2'-cyclopropyl-3-fluoro-5'-methyl-[1,1'-biphenyl]-4-carbonitrile]
IC50: 10 to 25 nM

N#Cc1ccc(-c2cccc(CC3CNCCO3)c2-c2ocnc2F)cc1F (centres unmarked) [Example 29, 3-fluoro-2′-(4-fluoro-1,3-oxazol-5-yl)-3′-[(morpholin-2-yl)methyl]-[1,1′-biphenyl]-4-carbonitrile]
IC50: 10 to 25 nM

N#Cc1ccc(-c2cccc(C[C@@H]3CNCCO3)c2-c2cncs2)cc1F (single isomer, unassigned) [Example 23]
IC50: 10 to 25 nM

N#Cc1ccc(-c2cccc(CN3[C@@H]4CC[C@H]3[C@@H](N)C4)c2C2CC2)cc1F (single isomer, unassigned) [Example 261]
IC50: 100 to 1000 nM

N#Cc1ccc(-c2cc(CC3CNCCO3)ccc2N2CCC2)cc1F (centres unmarked) [Example 44, 2′-(azetidin-1-yl)-3-fluoro-5′-[(morpholin-2-yl)methyl]-[1,1′-biphenyl]-4-carbonitrile]
IC50: 100 to 1000 nM

CC1(O)CC2(CN(c3ccc(CC4CNCCO4)cc3-c3ccc(C#N)c(F)c3)C2)C1 (centres unmarked) [Example 165, 3-fluoro-2′-{6-hydroxy-6-methyl-2-azaspiro[3.3]heptan-2-yl}-5′-[(morpholin-2-yl)methyl]-[1,1′-biphenyl]-4-carbonitrile]
IC50: 100 to 1000 nM

CN1CCC12CCN(Cc1c(F)ccc(-c3ccc(C#N)c(F)c3)c1N1CCC1)C2 (centres unmarked) [Example 239, 2'-(azetidin-1-yl)-3,4'-difluoro-3'-({1-methyl-1,6-diazaspiro[3.4]octan-6-yl}methyl)-[1,1'-biphenyl]-4-carbonitrile]
IC50: 25 to 100 nM
